Experimental data reported in publication PMC8705362, “Cytochrome P450 and P-gp Mediated Herb-Drug Interactions and Molecular Docking Studies of Garcinol” (Membranes, 2021).
Read-outs that look alike come from different tables or passages of the source.

Key:
CYP1A2 = target: T1, CYP1A2 (Rattus norvegicus, UniProt P04799); experiment: CYP1A2 inhibition, probe substrate cocktail in rat liver microsomes (tacrine 1-hydroxylation)
T1 sequence (P04799 1-513): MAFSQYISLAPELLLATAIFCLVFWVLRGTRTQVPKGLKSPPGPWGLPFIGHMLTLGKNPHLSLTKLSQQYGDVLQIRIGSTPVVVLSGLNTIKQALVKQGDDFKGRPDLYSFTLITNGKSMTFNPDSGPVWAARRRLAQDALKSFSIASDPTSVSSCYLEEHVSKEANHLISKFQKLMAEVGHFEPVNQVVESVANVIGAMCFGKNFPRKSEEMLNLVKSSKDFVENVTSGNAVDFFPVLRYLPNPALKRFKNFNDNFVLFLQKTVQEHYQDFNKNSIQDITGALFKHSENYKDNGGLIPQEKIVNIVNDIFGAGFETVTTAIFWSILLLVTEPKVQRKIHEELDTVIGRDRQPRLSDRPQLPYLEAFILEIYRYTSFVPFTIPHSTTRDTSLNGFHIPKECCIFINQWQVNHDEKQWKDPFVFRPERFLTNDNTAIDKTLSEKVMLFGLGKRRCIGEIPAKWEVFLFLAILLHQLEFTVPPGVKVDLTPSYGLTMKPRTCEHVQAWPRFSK
Procedure: (§1) Tacrine was used as CYP1A2 probe substrate instead of Phenacetin to avoid the possible interactions of Phenacetin with CYP2E1 probe substrate Chlorzoxazone. […] The above incubation mixture was pre-incubated for 5 min at 37 °C and the reaction was started by adding NADPH and terminated by the addition of 200 µL of ice-cold acetonitrile containing internal standard (IS). Then the mixture was vortex mixed and centrifuged at 4000 rpm for 10 min at 4 °C and supernatant was separated and analysed using LC-MS/MS.
(§2) IC50 values were determined by comparing each CYP isozyme activity in the presence of different concentrations of inhibitor (Garcinol) with the control incubations containing no inhibitor (Negative control). […]
(§3) The entire procedure is same as mentioned in section 2.3 except for various concentrations of the formulations
(§4) and extracts (0.41-100 µg/mL) and garcinol (0.11-30 µM) were used in the study.

CYP2B6 [1] = experiment: CYP2B6 inhibition, probe substrate cocktail in rat liver microsomes (bupropion hydroxylation); type: in vitro ADME; conditions: pH 7.4, probe bupropion (hydroxylation)
Procedure: as §1, §2, §3, §4

CYP2C8 = CYP2C8 inhibition, probe substrate cocktail in rat liver microsomes (paclitaxel 6α-hydroxylation); type: in vitro ADME; conditions: for Inhibition of CYP2C8 (in words): rat liver microsomes, garcinol up to 30 µM
Procedure: as §1, §2, §3, §4

CYP2C9 = CYP2C9 inhibition, probe substrate cocktail in rat liver microsomes (diclofenac 4-hydroxylation); type: in vitro ADME; conditions: pH 7.4, probe diclofenac (4-hydroxylation), rat liver microsomes 0.5 mg/mL, garcinol 0.11-30 µM
Procedure: as §1, §2, §3, §4

CYP2C19 = CYP2C19 inhibition, probe substrate cocktail in rat liver microsomes (S-mephenytoin 4-hydroxylation); type: in vitro ADME; conditions: pH 7.4, probe S-mephenytoin (4-hydroxylation), rat liver microsomes 0.5 mg/mL, garcinol 0.11-30 µM
Procedure: as §1, §2, §3, §4

CYP2D6 = CYP2D6 inhibition, probe substrate cocktail in rat liver microsomes (dextromethorphan O-demethylation); type: in vitro ADME; conditions: pH 7.4, probe dextromethorphan (O-demethylation), rat liver microsomes 0.5 mg/mL, garcinol 0.11-30 µM
Procedure: as §1, §2, §3, §4

CYP2E1 = CYP2E1 (Rattus norvegicus, UniProt P05182); experiment: CYP2E1 inhibition, probe substrate cocktail in rat liver microsomes (chlorzoxazone 6-hydroxylation)
Procedure: as §1, §2, §3, §4

CYP3A4 [2] = experiment: CYP3A4 inhibition, probe substrate cocktail in rat liver microsomes (midazolam 1-hydroxylation); type: in vitro ADME; conditions: pH 7.4, probe midazolam (1-hydroxylation), rat liver microsomes 0.5 mg/mL, garcinol 0.11-30 µM
Procedure: as §1, §2, §3, §4

CYP isoforms = experiment: Time-dependent inhibition, IC50 shift assay in rat liver microsomes; type: in vitro ADME; conditions: 30 min pre-incubation with and without NADPH, all tested CYP isoforms
Procedure: Garcinol was pre-incubated with rat liver microsomes to determine the time-dependent inhibition potential of garcinol on various CYP isoforms individually. After 30 min of incubation with and without NADPH separately, metabolites of each CYP probe substrates were quantified using LC-MS/MS. IC50 values with and without NADPH pre-incubation were calculated using graph-pad prism and change in IC50 fold was calculated to evaluate the potential of garcinol to inhibit the CYP enzymes irreversibly. If the curve shifts to lower IC50 value after the pre- incubation in presence of NADPH, it is said to be a time-dependent inhibition. Concentrations of the test compound and other procedure were same as reversible inhibition study mentioned under Section 2.3.

P-gp [3] = experiment: Western blotting of P-gp expression in rat brain and intestine; type: in vivo, rats; conditions: garcinol 25 mg/kg intragastric once a day for 10 days, normalized to β-actin, p < 0.05
Procedure: For Western blot analysis, twelve rats were divided into two groups. […] On the 10th day, all the rats were sacrificed under CO2 euthanasia. Brain and intestine were isolated immediately and stored at −80 °C until use. 10 mg of intestinal and brain samples were lysed using ice-cold radio immunoprecipitation assay lysis buffer containing 0.02 mM phenylmethane sulfonyl fluoride for 30 min and ultrasonicated for 60 s at 20-s intervals in an ice bath. These samples were transferred to centrifugation tubes and centrifuged for 10 min at 8000 g by maintaining temperature at 4 °C. Supernatants were estimated for protein concentration using BCA protein assay kit by following the manufacturer’s instructions. Protein denaturation was performed by reconstituting the supernatant in lammelle buffer and boiled for 5 mins at 97 °C. The denatured samples were later separated on 10% SDS-polyacrylamide gel electrophoresis and then transferred onto a nitrocellulose membrane. The membrane was then blocked with 3% bovine serum albumin in Tris-buffered saline-Tween 20 (TBS-T) for 1 hr at 37 °C. These immunoblots were probed with primary monoclonal antibody P-gp (1:1000) or β-actin (1:1000) overnight at 4 °C. […] The band intensity of P-gp protein was normalized to that of β-actin detected using Azure biosystems.

P-gp [4] = experiment: In-vivo P-gp pharmacokinetic study with digoxin; design: species or system SD rats; conditions: for Cl / Cmax / AUC(0-inf) / AUC(0-t) / half-life: SD rats, plasma; for Cmax / AUC(0-inf) / AUC(0-t) / half-life: rat, po; for Cmax: 0.5 mg/kg
Procedure: Effect of single dose garcinol on the P-gp was evaluated in-vivo, 18 rats were divided into three groups (Group I- Group III). Group I (Control group): rats were administered intragastrically with a single dose of vehicle (0.5% CMC-Na), and after 2 h of vehicle administration, digoxin (0.5 mg/kg) was given to the rats by intragastric administration. Group II: Rats received a single dose of garcinol (25 mg/kg) and digoxin (0.5 mg/kg) after 2 h. Group III: Verapamil (potent P-gp inhibitor) was administered to these rats followed by the administration of digoxin (results not shown). 0.2 mL of blood was collected at 0, 0.25, 0.5, 1, 2, 4, 6, 8, 24, and 48 h, plasma was separated immediately by centrifuging blood samples at 5000 rpm for 5 min and stored at −80 °C until analysis.
50 µL of plasma samples was crashed with ice-cold ACN containing internal standard (75 ng/mL) and vortexed gently and centrifuged at 10,000 rpm for 5 min. Supernatant was collected and submitted for LC-MS/MS analysis. LC-MS analysis was performed on LC-QTOF/MS (Agilent, 6540) and chromatographic separation was achieved on Waters X-Bridge C18 column (3.5 µm, 50 mm × 1.76 mm I.D) at 30 °C. Digoxin was analysed by a mobile phase consisting of solvent A (0.1% Formic acid in water) and solvent B (100% ACN) flow at a rate of 0.4 mL/min with a gradient program of 5 min. The program consisted of initial10 %B from 0.01 to 3.00 min, followed by 90% B from 3.01 to 4.00 min and again to 10% B from 4.01 to 5.00 min. [M+H]+ ions were identified and quantified for Digoxin and IS as 781.4369 and 515.2442, respectively. Optimized MS operating parameters were as follows: drying gas 10 L/min, gas temperature 325 °C, nebulizer at 40 psig, fragmentor voltage of 140 V and skimmer at 65 V.

CYP2B6 [5] = experiment: In-vivo CYP inhibition study, pharmacokinetics of probe bupropion and hydroxy bupropion; conditions: plasma
CYP3A4 [6] = conditions: rats, midazolam 10 mg/kg in probe mixture on day 8, with garcinol 25 mg/kg oral for 7 days, plasma; second block of Table 3
CYP3A4 [7] = experiment: in vivo; conditions: Sprague-Dawley, rat, plasma, po, 10 mg/kg
[8] = Sprague-Dawley, rat, po, 10 mg/kg
[9] = rats, bupropion 10 mg/kg in probe mixture on day 8, with garcinol 25 mg/kg oral for 7 days
[10] = digoxin 0.5 mg/kg 2 h after single dose garcinol 25 mg/kg (group DGX + Garcinol)
[11] = Sprague-Dawley, digoxin 0.5 mg/kg intragastric 2 h after vehicle (group DGX)

CYP2E1, sequence (P05182 whole entry): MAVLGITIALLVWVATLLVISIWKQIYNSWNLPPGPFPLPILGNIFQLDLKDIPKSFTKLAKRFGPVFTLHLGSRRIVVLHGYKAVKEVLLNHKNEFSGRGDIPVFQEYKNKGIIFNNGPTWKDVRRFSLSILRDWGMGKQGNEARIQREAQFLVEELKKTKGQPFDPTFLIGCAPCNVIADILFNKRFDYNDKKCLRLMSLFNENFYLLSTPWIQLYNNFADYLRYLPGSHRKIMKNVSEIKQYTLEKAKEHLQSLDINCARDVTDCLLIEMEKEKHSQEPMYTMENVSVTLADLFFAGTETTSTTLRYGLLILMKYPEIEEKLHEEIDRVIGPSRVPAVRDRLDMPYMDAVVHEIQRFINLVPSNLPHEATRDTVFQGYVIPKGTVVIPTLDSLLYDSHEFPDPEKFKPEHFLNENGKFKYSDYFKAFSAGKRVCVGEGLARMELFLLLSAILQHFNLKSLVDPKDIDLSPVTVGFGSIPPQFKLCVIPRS

## C=C(C)[C@@H](CC=C(C)C)C[C@@]12C[C@@H](CC=C(C)C)C(C)(C)[C@@](CC=C(C)C)(C(=O)C(C(=O)c3ccc(O)c(O)c3)=C1O)C2=O [Garcinol]
CYP1A2
  IC50: 7.6 µM
CYP2B6 [1]
  IC50: 2100 nM
CYP2C8; pH 7.4, probe paclitaxel (6α-hydroxylation), rat liver microsomes 0.5 mg/mL, substrate paclitaxel, garcinol 0.11-30 µM
  IC50: > 30 µM
CYP2C8
  Inhibition of CYP2C8 (in words): no apparent inhibition
CYP2C8; listed as garcinol
  Inhibition of CYP2C8 (in words): negligibly inhibited
CYP2C9
  IC50: 8 µM
CYP2C19
  IC50: 16.4 µM
CYP2D6
  IC50: 9.5 µM
CYP2E1
  IC50: 19 µM
CYP3A4 [2]
  IC50: 5.1 µM
CYP isoforms
  Shift in IC50 (time dependent inhibition): no significant shift
CYP isoforms; listed as garcinol
  Shift in IC50 (time dependent inhibition): did not show shift
P-gp [3]; rat brain tissue
  P-gp expression increase vs control group: 1.62 fold
P-gp [3]; rat intestinal tissue
  P-gp expression increase vs control group: 1.07 fold
P-gp [4]; rats, single dose garcinol 25 mg/kg, digoxin as P-gp substrate
  Effect on P-gp function in vivo (in words): not an inhibitor of P-gp

## CC(NC(C)(C)C)C(=O)c1cccc(Cl)c1 (stereo not shown) [Bupropion, bupropion]
CYP2B6 [5]; [8]
  AUC(0-inf): 48800 ng·h/mL
  AUC(0-t): 48200 ng·h/mL
  Cmax: 8100 ± 121 ng/mL
  Tmax: 2.5 ± 3.52 h

## OCc1ncc2n1-c1ccc(Cl)cc1C(c1ccccc1F)=NC2 [hydroxy midazolam, 1-hydroxy midazolam]
CYP3A4 [6]
  AUClast: 737.45 ± 66.95 ng·h/mL
  Cmax: 482.85 ± 14.34 ng/mL
  Tmax: 15 ± 115 min
  t1/2: 2.15 ± 0.36 h

## C[C@H]1NC(C)(C)CO[C@]1(O)c1cccc(Cl)c1 [Hydroxy Bupropion, hydroxybupropion]
CYP2B6 [5]; [9]
  AUC0-∞: 6200.97 ± 106.97 ng·h/mL
  AUClast: 6057.86 ± 101.41 ng·h/mL
  Cmax: 632.02 ± 30.55 ng/mL
  Tmax: 1 ± 1.93 h
  t1/2: 10.23 ± 0.04 h

## Cc1ncc2n1-c1ccc(Cl)cc1C(c1ccccc1F)=NC2 [midazolam]
CYP3A4 [7]
  AUC(0-inf): 1140 ± 77.4 ng·h/mL
  AUC(0-t): 1240 ± 18.6 ng·h/mL
  Cmax: 829 ± 15.7 ng/mL
  Tmax: 30 ± 73.8 min
  half-life: 187 ± 52.8 min

## C[C@H]1O[C@@H](O[C@H]2[C@@H](O)C[C@H](O[C@H]3[C@@H](O)C[C@H](O[C@H]4CC[C@@]5(C)[C@H](CC[C@@H]6[C@@H]5C[C@@H](O)[C@]5(C)[C@@H](C7=CC(=O)OC7)CC[C@]65O)C4)O[C@@H]3C)O[C@@H]2C)C[C@H](O)[C@@H]1O [DGX, digoxin]
P-gp [4]; [10]
  Cl: 1474.76 ± 85.34 mL/h/kg
  AUC(0-inf): 172 ± 12.6 ng·h/mL
  AUC(0-t): 151.4 ± 0.58 ng·h/mL
  half-life: 439 ± 105 min
P-gp [4]; digoxin 0.5 mg/kg intragastric 2 h after vehicle (group DGX)
  Cl: 984.06 ± 56.87 mL/h/kg
P-gp [4]; Sprague-Dawley, digoxin 0.5 mg/kg 2 h after single dose garcinol 25 mg/kg (group DGX + Garcinol)
  Cmax: 16.8 ± 4.22 ng/mL
P-gp [4]; [11]
  Cmax: 26.1 ± 5.23 ng/mL
  AUC(0-inf): 254 ± 19.2 ng·h/mL
  AUC(0-t): 172 ± 12.3 ng·h/mL
  half-life: 904 ± 21 min
